Source: patent US7605156B2, “Methods for the use of inhibitors of cytosolic phospholipase A2” (Wyeth, priority 2001, dated 2009)

Target: T1, cPLA2 (Homo sapiens, UniProt P47712)
T1 sequence (P47712 1-749): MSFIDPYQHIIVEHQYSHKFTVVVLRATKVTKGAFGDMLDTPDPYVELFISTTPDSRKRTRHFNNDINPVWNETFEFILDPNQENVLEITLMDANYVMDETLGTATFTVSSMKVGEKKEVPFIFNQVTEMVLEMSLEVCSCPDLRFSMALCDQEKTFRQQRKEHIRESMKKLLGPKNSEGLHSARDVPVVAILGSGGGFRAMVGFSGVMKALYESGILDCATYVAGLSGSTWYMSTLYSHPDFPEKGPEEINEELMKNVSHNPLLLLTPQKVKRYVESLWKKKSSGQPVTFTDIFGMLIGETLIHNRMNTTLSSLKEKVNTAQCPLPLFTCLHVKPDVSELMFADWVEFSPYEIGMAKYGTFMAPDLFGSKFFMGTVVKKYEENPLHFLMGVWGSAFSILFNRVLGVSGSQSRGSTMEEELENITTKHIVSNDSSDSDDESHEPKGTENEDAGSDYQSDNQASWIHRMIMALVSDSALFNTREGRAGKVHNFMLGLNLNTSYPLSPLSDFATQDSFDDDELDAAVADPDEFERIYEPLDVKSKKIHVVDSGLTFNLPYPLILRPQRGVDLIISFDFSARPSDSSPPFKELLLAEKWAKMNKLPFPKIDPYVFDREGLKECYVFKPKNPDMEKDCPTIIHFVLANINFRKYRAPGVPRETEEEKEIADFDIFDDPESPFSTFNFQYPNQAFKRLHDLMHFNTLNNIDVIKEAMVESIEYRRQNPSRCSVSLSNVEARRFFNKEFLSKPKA
Assay: Coumarine assay (hydrolysis of 7-hydroxycoumarinyl 6-heptenoate)
Format: biochemical
Settings: 60 μM 7-hydroxycoumarinyl 6-heptenoate, pH 7.5; read-out: Coumarin IC50

In the case of `Cc1nn(C)c(C)c1S(=O)(=O)NCCc1c(CCCc2ccc(C(=O)O)cc2)c2cc(Cl)ccc2n1C(c1ccccc1)c1ccccc1` [Example 212, 4-{3-[1-benzhydryl-5-chloro-2-(2-{[(1,3,5-trimethyl-1H-pyrazol-4-yl)sulfonyl]amino}ethyl)-1H-indol-3-yl]propyl}benzoic acid], the IC50 is reported as 180 nM.

For `Cc1c(Cl)cc(F)cc1S(=O)(=O)NCCc1c(CCOc2ccc(C(=O)O)cc2)c2cc(Cl)ccc2n1C(c1ccccc1)c1ccccc1` [Example 262, 4-{2-[1-benzhydryl-5-chloro-2-(2-{[(3-chloro-5-fluoro-2-methylphenyl)sulfonyl]amino}ethyl)-1H-indol-3-yl]ethoxy}benzoic acid], the IC50 was 530 nM.

In the case of `O=C(O)c1ccc(OCCc2c(CCNS(=O)(=O)c3c(Cl)cccc3Cl)n(C(c3ccccc3)c3ccccc3)c3ccc(Cl)cc23)cc1` [Example 160, 4-{2-[1-benzhydryl-5-chloro-2-(2-{[(2,6-dichlorophenyl)sulfonyl]amino}ethyl)-1H-indol-3-yl]ethoxy}benzoic acid], the IC50 is reported as 190 nM.

For `Cc1ccc(S(=O)(=O)NCCc2c(CCOc3ccc(C(=O)O)cc3)c3cc(Cl)ccc3n2C(c2ccccc2)c2ccccc2)cc1Cl` [Example 260, 4-{2-[1-benzhydryl-5-chloro-2-(2-{[(3-chloro-4-methylphenyl)sulfonyl]amino}ethyl)-1H-indol-3-yl]ethoxy}benzoic acid], the IC50 was 370 nM.

Work on `Nc1ccccc1CS(=O)(=O)NCCc1c(CCOc2ccc(C(=O)O)cc2)c2cc(Cl)ccc2n1C(c1ccccc1)c1ccccc1` [Example 16] yielded an IC50 of 980 nM.

`COc1ccc(S(=O)(=O)NCCc2c(CCOc3ccc(C(=O)O)cc3)c3cc(Cl)ccc3n2C(c2ccccc2)c2ccccc2)c2nonc12` [Example 175, 4-{2-[1-benzhydryl-5-chloro-2-(2-{[(7-methoxy-2,1,3-benzoxadiazol-4-yl)sulfonyl]amino}ethyl)-1H-indol-3-yl]ethoxy}benzoic acid] was tested, and the IC50 was 370 nM.

`O=C(O)c1ccc(OCCc2c(CCNS(=O)(=O)c3cccc(OC(F)(F)F)c3)n(C(c3ccccc3)c3ccccc3)c3ccc(Cl)cc23)cc1` [Example 198, 4-(2-{1-Benzhydryl-5-chloro-2-[2-(3-trifluoromethoxy-benzenesulfonylamino)-ethyl]-1H-indol-3-yl}-ethoxy)-benzoic acid] showed an IC50 of 700 nM.

Compound `Cc1cccc(C)c1S(=O)(=O)NCCc1c(CCCc2ccc(C(=O)O)cc2)c2cc(Cl)ccc2n1C(c1ccccc1)c1ccccc1` [Example 270, 4-(3-[1-benzhydryl-5-chloro-2-(2-{[(2,6-dimethylphenyl)sulfonyl]amino}ethyl)-1H-indol-3-yl]propyl}benzoic acid] has an IC50 of 140 nM.

Work on `COc1ccccc1S(=O)(=O)NCCc1c(CCOc2ccc(C(=O)O)cc2)c2cc(Cl)ccc2n1C(c1ccccc1)c1ccccc1` [Example 235, 4-{2-[1-benzhydryl-5-chloro-2-(2-{[(2-methoxyphenyl)sulfonyl]amino}ethyl)-1H-indol-3-yl]ethoxy}benzoic acid] yielded an IC50 of 180 nM.

Compound `O=C(O)c1ccc(OCCc2c(CCNS(=O)(=O)C[S+]([O-])c3ccc(Cl)c(Cl)c3)n(C(c3ccccc3)c3ccccc3)c3ccc(Cl)cc23)cc1` (stereo not drawn) [Example 289, 4-[2-(1-benzhydryl-5-chloro-2-{2-[({[(3,4-dichlorophenyl)sulfinyl]methyl}sulfonyl)amino]ethyl}-1H-indol-3-yl)ethoxy]benzoic acid] has an IC50 of 900 nM.

For `Cc1ccccc1S(=O)(=O)NCCc1c(CCCc2ccc(C(=O)O)cc2)c2cc(Cl)ccc2n1C(c1ccccc1)c1ccccc1` [Example 232], the IC50 was 130 nM.

Compound `COc1cccc(OC)c1S(=O)(=O)NCCc1c(CCCc2ccc(C(=O)O)cc2)c2cc(Cl)ccc2n1C(c1ccccc1)c1ccccc1` [Example 275, 4-{3-[1-benzhydryl-5-chloro-2-(2-{[(2,6-dimethoxyphenyl)sulfonyl]amino}ethyl)-1H-indol-3-yl]propyl}benzoic acid] has an IC50 of 240 nM.

With `O=C(O)c1cccc(OCCc2c(CCNS(=O)(=O)Cc3ccccc3)n(C(c3ccccc3)c3ccccc3)c3ccc(Cl)cc23)c1` [Example 283] the IC50 was 500 nM.

For `O=C(O)c1ccc(OCCc2c(CCNS(=O)(=O)Cc3cc(F)cc(F)c3)n(C(c3ccccc3)c3ccccc3)c3ccc(Cl)cc23)cc1` [Example 35, 4-{2-[1-benzhydryl-5-chloro-2-(2-{[(3,5-difluorobenzyl)-sulfonyl]amino}ethyl)-1H-indol-3-yl]ethoxy}benzoic acid], the IC50 was 330 nM.

`O=C(O)c1ccc(OCCc2c(CCNS(=O)(=O)Cc3cccc(C(F)(F)F)c3)n(C(c3ccccc3)c3ccccc3)c3ccc(Cl)cc23)cc1` [Example 12] was tested, and the IC50 was 150000 nM.

`COC[C@@H]1CCCN1CCS(=O)(=O)NCCc1c(CCOc2ccc(C(=O)O)cc2)c2cc(Cl)ccc2n1C(c1ccccc1)c1ccccc1` [Example 248, 4-[2-(1-benzhydryl-5-chloro-2-{2-[({2-[(2S)-2-(methoxymethyl)pyrrolidin-1-yl]ethyl}sulfonyl)amino]ethyl}-1H-indol-3-yl)ethoxy]benzoic acid] gave an IC50 of 1200 nM.

`O=C(O)c1ccc(CCCc2c(CCNS(=O)(=O)c3ccc(Cl)c4nonc34)n(C(c3ccccc3)c3ccccc3)c3ccc(Cl)cc23)cc1` [Example 172, 4-{3-[1-benzhydryl-5-chloro-2-(2-{[(7-chloro-2,1,3-benzoxadiazol-4-yl)sulfonyl]amino}ethyl)-1H-indol-3-yl]propyl}benzoic acid] gave an IC50 of 350 nM.

`O=C(O)c1ccc(CCCc2c(CCNS(=O)(=O)c3c(F)cccc3F)n(C(c3ccccc3)c3ccccc3)c3ccc(Cl)cc23)cc1` [Example 224] gave an IC50 of 250 nM.

`COc1ccccc1S(=O)(=O)NCCc1c(CCCc2ccc(C(=O)O)cc2)c2cc(Cl)ccc2n1C(c1ccccc1)c1ccccc1` [Example 234, 4-{3-[1-Benzhydryl-5-chloro-2-(2-{[(2-methoxyphenyl)sulfonyl]amino}ethyl)-1H-indol-3-yl]propyl}benzoic acid] was tested, and the IC50 was 230 nM.

For `Cc1cc(C)c(S(=O)(=O)NCCc2c(CCCc3ccc(C(=O)O)cc3)c3cc(Cl)ccc3n2C(c2ccccc2)c2ccccc2)c(C)c1` [Example 267, 4-(3-{1-Benzhydryl-5-chloro-2-[2-(2,4,6-trimethyl-benzenesulfonylamino)-ethyl]-1H-indol-3-yl}-propyl)-benzoic acid], the IC50 was 74 nM.

Compound `COc1ccc(S(=O)(=O)NCCc2c(CCCc3ccc(C(=O)O)cc3)c3cc(Cl)ccc3n2C(c2ccccc2)c2ccccc2)c2nonc12` [Example 173, 4-{3-[1-benzhydryl-5-chloro-2-(2-{[(7-methoxy-2,1,3-benzoxadiazol-4-yl)sulfonyl]amino}ethyl)-1H-indol-3-yl]propyl}benzoic acid] has an IC50 of 400 nM.

For `CS(=O)(=O)c1ccc(S(=O)(=O)NCCc2c(CCOc3ccc(C(=O)O)cc3)c3cc(Cl)ccc3n2C(c2ccccc2)c2ccccc2)cc1` [Example 203, 4-(2-{1-benzhydryl-5-chloro-2-[2({[4-(methylsulfony)phenyl]sulfonyl}amino)ethyl]-1H-indol-3-yl}ethoxy)benzoic acid], the IC50 was 690 nM.

With “4-{2-[1-benzhydryl-5-chloro-2-(2-{[(2,6-dimethylbenzyl)sulfonyl]amino}ethyl)-1H-indol-3-yl]ethoxy}benzoic acid [Example 279]” the IC50 was 160 nM.

Work on `CS(=O)(=O)c1ccccc1S(=O)(=O)NCCc1c(CCCc2ccc(C(=O)O)cc2)c2cc(Cl)ccc2n1C(c1ccccc1)c1ccccc1` [Example 204, 4-(3-{1-Benzhydryl-5-chloro-2-[2({[2-(methylsulfonyl)phenyl]sulfonyl}amino)ethyl]-1H-indol-3-yl}propyl)benzoic acid] yielded an IC50 of 200 nM.
